How the values were obtained:
Assay type in all cases: in vivo, C57BL/6J male mice
[1] = system: MK-801 treated mice; assay: Open field, MK-801-induced hyper-locomotion
Experimental: Each mouse in Groups 2-6 received an acute administration of MK-801 (Sigma-Aldrich, USA) dissolved in normal saline, 0.1 mg/kg, i.p.) 20 minutes prior to the behavioral tests. Each mouse in Groups 3-6 received an acute administration of tannic acids (Sigma-Aldrich, USA; dissolved in PBS, 10, 15, 20 or 30 mg/kg, i.p.) 20 minutes prior to the MK-801 administration.
(§1) Each mouse in Groups 2-5 received an acute administration of MK-801 (Sigma-Aldrich, USA) dissolved in normal saline, 0.1 mg/kg for open field and Barnes maze tasks, and 0.2 mg/kg for prepulse inhibition and sucrose preference tasks by i.p. injection) 20 minutes prior to the behavioral tests. Each mouse in Groups 3-6 received an acute oral administration of tannic acids (Merck Millipore, Germany; dissolved in PBS, 10, 30, or 100 mg/kg, p.o.) 20 minutes prior to the MK-801 administration.
Each mouse in Groups 2-5 received an acute administration of 0.2 mg/kg MK-801 (Sigma-Aldrich, USA) dissolved in normal saline by i.p. injection 20 minutes prior to the locomotion activity test. […]
The open field task is a common measurement of novelty induced exploratory behavior and general activity in both mice and rats. […] Their spontaneous locomotor activities were measured for 30 minutes using the SMART video tracking system (Panlab, Harvard Apparatus). The travel distance of each mouse was measured as an index of locomotion activity.

[2] = system: MK-801 treated mice; assay: Prepulse inhibition in MK-801-treated mice
[3] = system: MK-801 treated mice; assay: Sucrose preference (anhedonia) in MK-801 treated mice; conditions: MK-801 alone 0.2 mg/kg i.p.
Experimental: as §1
Sucrose preference test has been commonly examined in mouse models of several mental illnesses, including, but not limited to, depression, major depression disorder, anhedonia, negative symptoms of schizophrenia, chronic mild and unpredictable stress (see Anderson et al., 2006; Carvalho et al., 2013; Briones et al., 2011; Der-Avakian and Markou, 2012; Tye et al., 2013; Edwards and Koob, 2012; Brigman et al., 2010; Koo and Duman, 2007; Nestler and Hyman, 2010; Overstreet, 2012; Papp et al., 1991; Santiago et al., 2010; Skalisz et al., 2002; Szczypka et al., 2001; Taylor et al., 2010; Vardigan et al., 2010; Willner et al., 1987; You et al., 2011).

C[C@]12N[C@H](Cc3ccccc31)c1ccccc12 [MK-801, dizocilpine]
locomotion activity vs control group ([1]; MK-801 alone 0.1 mg/kg i.p. (Example 3)): hyper-locomotion activity | locomotion activity vs control group ([1]; MK-801 alone 0.2 mg/kg i.p. (Example 9)): hyper-locomotion activity | prepulse inhibition vs control group ([2]; MK-801 alone 0.2 mg/kg i.p. (Example 4)): robust prepulse inhibition deficits | prepulse inhibition vs control group ([2]; MK-801 alone 0.3 mg/kg i.p., all prepulse intensities (Example 9)): robust prepulse inhibition deficits | preference toward the sucrose solution (2%) vs control group [3]: did not show the preference toward the sucrose solution
